The test system of data set [1] is DOHH2 cells. Description: Cell proliferation assay in DOHH2 cells (MTS). The class given is cell-based. The conditions noted are these: Homo sapiens, DOHH-2, 120 h. The gist of the method: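 DOHH2 cells at 5000/well were treated with compound at 1.5–10000 nM for 120 h at 37 °C, as a proxy for BTK inhibition. Proliferation was read by MTS for 2 h, stopped with SDS, and absorbance measured at 490 nm with 650 nm reference; IC50 was fitted from the curve.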

For data set [2], the target named is T1, BTK (C481S) (Homo sapiens, UniProt Q06187, C481S).
T1 construct: purchased SignalChem B10-12CH
T1 sequence (Q06187 whole entry C481S): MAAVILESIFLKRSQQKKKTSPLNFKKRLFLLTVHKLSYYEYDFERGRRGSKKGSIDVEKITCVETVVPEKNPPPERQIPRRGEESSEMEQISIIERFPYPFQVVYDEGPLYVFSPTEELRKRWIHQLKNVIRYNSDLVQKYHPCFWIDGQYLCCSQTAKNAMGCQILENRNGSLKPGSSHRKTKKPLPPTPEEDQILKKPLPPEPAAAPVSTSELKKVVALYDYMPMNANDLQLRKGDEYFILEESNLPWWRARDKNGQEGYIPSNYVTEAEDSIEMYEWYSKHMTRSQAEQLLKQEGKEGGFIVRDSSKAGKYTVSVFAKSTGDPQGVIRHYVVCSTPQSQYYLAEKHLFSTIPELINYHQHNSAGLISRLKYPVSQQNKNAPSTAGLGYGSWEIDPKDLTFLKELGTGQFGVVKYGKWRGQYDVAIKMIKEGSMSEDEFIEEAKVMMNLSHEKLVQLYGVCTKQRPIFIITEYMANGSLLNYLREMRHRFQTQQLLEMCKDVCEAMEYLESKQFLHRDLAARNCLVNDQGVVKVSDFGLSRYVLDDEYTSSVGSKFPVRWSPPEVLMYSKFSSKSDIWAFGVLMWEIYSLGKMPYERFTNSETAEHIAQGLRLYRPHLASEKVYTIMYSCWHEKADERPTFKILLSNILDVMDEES
Description: Kinase assay of BTK (C481S), [33P]-ATP filter-binding, at Reaction Biology Corporation. The class given is biochemical. Conditions: 10 μM ATP, 20 min preincubation, 120 min reaction. How it is done:
The kinase activity of BTK (C481S) was assayed at Reaction Biology Corporation. The substrate in the BTK (C481S) reaction, pEY (poly[Glu:Tyr] (4:1)) (Sigma, Cat. #P7244-250MG), was prepared in fresh reaction buffer (20 mM Hepes (pH 7.5), 10 mM MgCl2, 1 mM EGTA, 0.02% Brij35, 0.02 mg/ml BSA, 0.1 mM Na3VO4, 2 mM DTT, 1% DMSO). BTK(C481S) (SignalChem, Cat. #B10-12CH) was delivered into the substrate solution and mixed gently. The final concentrations of BTK (C481S) and the substrate in the reaction mixture were 6 nM and 0.2 mg/ml, respectively. Compounds were tested in 10-point concentration/response mode with 3-fold serial dilution steps starting at 1 μM.
Compounds in 100% DMSO were delivered into the kinase reaction mixture by acoustic liquid delivery technology (Echo550; nanoliter range) and incubated for 20 min at room temperature. 10 μM [^33P]-ATP (ATP: Sigma, Cat #: A7699; [^33P]-ATP: Hartmann Analytic, Cat #: SCF-301-12) was delivered into the reaction mixture to initiate the reaction. The mixture was incubated for 120 min at room temperature. Radioactivity was detected utilizing a proprietary filter-binding method. Kinase activity data were expressed as the percent remaining kinase activity in test samples compared to vehicle (DMSO) reactions. IC50 values were obtained using GraphPad Prism software.
Select compounds prepared as described above were assayed according to the biological procedures described herein.

Data set [3] in a line: Pharmacokinetics in male Sprague-Dawley rats. The class given is in vivo. The conditions noted are these: rat; for Cmax: read-out: Cmax/C0; for MRT last: read-out: MRT0-t. The method, then: The purpose of this study was to determine the pharmacokinetics of Example 71 and Example 75 in male Sprague-Dawley rats (Supplied by Beijing Vital River Laboratory Animal Technology Co., Ltd.).
Animals in Group 1 were administered with Example 71 by single intravenous bolus injection at 1 mg/kg, which was formulated in 60% Phosal 50 PG (Lipoid, Batch #368315-3180028/009): 30% PEG400 (Sigma, Batch #MKCH6281): 10% Ethanol (Merck, Batch #K48244883634) at 1 mg/mL as a solution. Animals in Group 2 were administered with Example 71 by single oral gavage (PO) administration at 5 mg/kg, which was formulated in 60% Phosal 50 PG (Lipoid, Batch #368315-3180028/009): 30% PEG400 (Sigma, Batch #MKCH6281): 10% Ethanol (Merck, Batch #K48244883634) at 1 mg/mL as a solution. Blood samples were collected at 0.083, 0.25, 0.5, 1, 2, 4, 8, 12 and 24 hours post-dose. Concentrations of Example 71 in plasma were determined by LC/MS/MS (LC: Waters UPLC; MS: API4000).
Animals in Group 3 were administered with Example 75 by single intravenous bolus injection at 2 mg/kg, which was formulated in 10% DMSO (Sigma, Batch #LPC0S181): 60% PEG400 (Sigma, Batch #MKCH6281): 30% water at 2 mg/mL as a solution. Animals in Group 4 were administered with Example 75 by single oral gavage (PO) administration at 10 mg/kg, which was formulated in 10% DMSO (Sigma, Batch #LPC0S181): 60% PEG400 (Sigma, Batch #MKCH6281): 30% water at 2 mg/mL as a solution. Blood samples were collected at 0.083, 0.25, 0.5, 1, 2, 4, 8, 12 and 24 hours post-dose. Concentrations of Example 75 in plasma were determined by LC/MS/MS (LC: Waters UPLC; MS: Triple Quad 6500 plus).

The mark [4] stands for this setting: male, Sprague-Dawley, plasma, iv, 2 mg/kg.
The mark [5] stands for this setting: male, Sprague-Dawley, plasma, po, 10 mg/kg.

Here are results for 16 compounds from patent US20220235049A1, “SUBSTITUTED PYRROLO [2, 3-b] PYRIDINE AND PYRAZOLO [3,4-b] PYRIDINE DERIVATIVES AS PROTEIN KINASE INHIBITORS” (Fochon Pharmaceuticals, Ltd., priority 2019, published 2022).

Read-outs that look alike come from different tables or passages of the source.

As for `O=C(c1ccc(Oc2ccccc2)cc1Cl)c1c[nH]c2nccc(N[C@@H]3CC[C@@H](CO)OC3)c12` [Example 2, (2-Chloro-4-phenoxyphenyl)(4-(((3R,6S)-6-(hydroxymethyl)tetrahydro-2H-pyran-3-yl)amino)-1H-pyrrolo[2,3-b]pyridin-3-yl)methanone], the IC50 – broadly, the concentration at which inhibition is half-maximal – is 26 nM in data set [1] and 2.22 nM in data set [2].
On to `COc1cnc2[nH]cc(C(=O)c3ccc(Oc4ccccc4F)cc3F)c2c1N[C@@H]1CC[C@@H](CO)OC1` [Example 75, (2-fluoro-4-(2-fluorophenoxy)phenyl)(4-(((3R,6S)-6-(hydroxymethyl)tetrahydro-2H-pyran-3-yl)amino)-5-methoxy-1H-pyrrolo[2,3-b]pyridin-3-yl)methanone], for which, in data set [3] (setting [4]), the AUC(0-inf) (as a rule, the area under the concentration-time curve extrapolated to infinity) came to 10200 ng·h/mL; the AUC(0-t) (commonly exposure summed from dosing to a finite time, without extrapolation to infinity) was determined as 10100 ng·h/mL; the clearance (commonly the rate of elimination divided by the concentration) was determined as 3.33 mL/min/kg; the half-life – broadly, the time needed for the level to fall by half in the phase considered – is 2.56 h. For the same compound, in data set [3] (setting [4]), the Cmax came out at 6350 ng/mL and the MRT last was found to be 2.43 h. Also, the Vd in data set [3] (male, Sprague-Dawley, plasma, iv, 2 mg/kg, read-out: Vdss) was found to be 0.489 L/kg. In data set [3] (setting [5]), the AUC(0-inf) came out at 29000 ng·h/mL; the AUC(0-t) was found to be 28900 ng·h/mL; the Tmax (in general, the time from dosing to the highest level) was 2.83 h; the half-life was 2.8 h. Also, in data set [3] (setting [5]), the Cmax came out at 4140 ng/mL and the MRT last was 5.58 h. Besides, the F in data set [3] (po 10 mg/kg vs iv 2 mg/kg) is listed as 57.1%. Also, the IC50 in data set [1] was 1 nM.
`COc1cnc2[nH]cc(C(=O)c3ccc(Oc4c(F)cccc4F)cc3)c2c1N[C@@H]1CC[C@@H](CO)OC1` [Example 184, (4-(2,6-difluorophenoxy)phenyl)(4-(((3R,6S)-6-(hydroxymethyl)tetrahydro-2H-pyran-3-yl)amino)-5-methoxy-1H-pyrrolo[2,3-b]pyridin-3-yl)methanone] yielded an IC50 in data set [1] of 1 nM.
On the same count and under the same terms, in the case of `Cc1cc(Oc2c(F)cccc2F)ccc1C(=O)c1c[nH]c2ncc(F)c(N[C@@H]3CC[C@@H](CO)OC3)c12` [Example 185, (4-(2,6-difluorophenoxy)-2-methylphenyl)(5-fluoro-4-(((3R,6S)-6-(hydroxymethyl)tetrahydro-2H-pyran-3-yl)amino)-1H-pyrrolo[2,3-b]pyridin-3-yl)methanone] it was 14 nM; in that of `COc1cnc2[nH]cc(C(=O)c3ccc(Oc4c(F)cccc4F)cc3Cl)c2c1N[C@@H]1CC[C@@H](CO)OC1` [Example 186, (2-chloro-4-(2,6-difluorophenoxy)phenyl)(4-(((3R,6S)-6-(hydroxymethyl)tetrahydro-2H-pyran-3-yl)amino)-5-methoxy-1H-pyrrolo[2,3-b]pyridin-3-yl)methanone], 17 nM.
In turn, `O=C(c1ccc(Oc2c(F)cccc2F)cc1Cl)c1c[nH]c2ncc(F)c(N[C@@H]3CC[C@@H](CO)OC3)c12` [Example 187, (2-chloro-4-(2,6-difluorophenoxy)phenyl)(5-fluoro-4-(((3R,6S)-6-(hydroxymethyl)tetrahydro-2H-pyran-3-yl)amino)-1H-pyrrolo[2,3-b]pyridin-3-yl)methanone] gave an IC50 in data set [1] of 52 nM.
On the same count and under the same terms, in the case of `COc1cnc2[nH]cc(C(=O)c3ccc(Oc4c(F)cccc4F)cc3C)c2c1N[C@@H]1CC[C@@H](CO)OC1` [Example 188, (4-(2,6-difluorophenoxy)-2-methylphenyl)(4-(((3R,6S)-6-(hydroxymethyl)tetrahydro-2H-pyran-3-yl)amino)-5-methoxy-1H-pyrrolo[2,3-b]pyridin-3-yl)methanone] it was 4 nM.
In turn, `O=C(c1ccc(Oc2c(F)cccc2F)cc1Cl)c1c[nH]c2ncc(Cl)c(N[C@@H]3CC[C@@H](CO)OC3)c12` [Example 189, (5-chloro-4-(((3R,6S)-6-(hydroxymethyl)tetrahydro-2H-pyran-3-yl)amino)-1H-pyrrolo[2,3-b]pyridin-3-yl)(2-chloro-4-(2,6-difluorophenoxy)phenyl)methanone] came in with an IC50 in data set [1] of 32 nM.
On the same count and under the same terms, in the case of `O=C(c1ccc(Oc2c(F)cccc2F)cc1)c1c[nH]c2ncc(Cl)c(N[C@@H]3CC[C@@H](CO)OC3)c12` [Example 190, (5-chloro-4-(((3R,6S)-6-(hydroxymethyl)tetrahydro-2H-pyran-3-yl)amino)-1H-pyrrolo[2,3-b]pyridin-3-yl)(4-(2,6-difluorophenoxy)phenyl)methanone] it was 11 nM; in that of `COc1cnc2[nH]cc(C(=O)c3ccc(Oc4ccccc4)cc3F)c2c1N[C@@H]1CC[C@@H](CO)OC1` [Example 191, (2-fluoro-4-phenoxyphenyl)(4-(((3R,6S)-6-(hydroxymethyl)tetrahydro-2H-pyran-3-yl)amino)-5-methoxy-1H-pyrrolo[2,3-b]pyridin-3-yl)methanone], 1 nM.
Same read-out and setting: in the case of `COc1cnc2[nH]cc(C(=O)c3ccc(Oc4c(F)cccc4F)cc3F)c2c1N[C@@H]1CC[C@@H](CO)OC1` [Example 192, (4-(2,6-difluorophenoxy)-2-fluorophenyl)(4-(((3R,6S)-6-(hydroxymethyl)tetrahydro-2H-pyran-3-yl)amino)-5-methoxy-1H-pyrrolo[2,3-b]pyridin-3-yl)methanone] it was 8 nM; in that of `COc1cnc2[nH]cc(C(=O)c3c(F)cc(Oc4c(F)cccc4F)cc3F)c2c1N[C@@H]1CC[C@@H](CO)OC1` [Example 193, (4-(2,6-difluorophenoxy)-2,6-difluorophenyl)(4-(((3R,6S)-6-(hydroxymethyl)tetrahydro-2H-pyran-3-yl)amino)-5-methoxy-1H-pyrrolo[2,3-b]pyridin-3-yl)methanone], 12 nM.
Same read-out and setting: in the case of `COc1cnc2[nH]cc(C(=O)c3c(F)cc(Oc4ccccc4F)cc3F)c2c1N[C@@H]1CC[C@@H](CO)OC1` [Example 194, (2,6-difluoro-4-(2-fluorophenoxy)phenyl)(4-(((3R,6S)-6-(hydroxymethyl)tetrahydro-2H-pyran-3-yl)amino)-5-methoxy-1H-pyrrolo[2,3-b]pyridin-3-yl)methanone] it was 26 nM; in that of `COc1cnc2[nH]cc(C(=O)c3ccc(Oc4ncccc4F)cc3F)c2c1N[C@@H]1CC[C@@H](CO)OC1` [Example 195], 83 nM.
In data set [1], `COc1cnc2[nH]cc(C(=O)c3ccc(Oc4ccccn4)cc3F)c2c1N[C@@H]1CC[C@@H](CO)OC1` [Example 196, (2-fluoro-4-(pyridin-2-yloxy)phenyl)(4-(((3R,6S)-6-(hydroxymethyl)tetrahydro-2H-pyran-3-yl)amino)-5-methoxy-1H-pyrrolo[2,3-b]pyridin-3-yl)methanone] came in with an IC50 of 44 nM.
With `COc1cnc2[nH]cc(C(=O)c3c(F)cc(Oc4ccccn4)cc3F)c2c1N[C@@H]1CC[C@@H](CO)OC1` [Example 198, (2,6-difluoro-4-(pyridin-2-yloxy)phenyl)(4-(((3R,6S)-6-(hydroxymethyl)tetrahydro-2H-pyran-3-yl)amino)-5-methoxy-1H-pyrrolo[2,3-b]pyridin-3-yl)methanone], in data set [1], the IC50 came out at 52 nM.
